According to patent US20220017512A1 (SHANGHAI ENNOVABIO PHARMACEUTICALS CO., LTD., priority 2018, published 2022):

Key:
KM12-LUC cells = assay: KM12-LUC cell proliferation experiment (CellTiter-Glo, 72 hours); type: cell-based; settings: Homo sapiens; KM12-LUC cells expressing TPM3-NTRK1 fusion gene
Description: Biological Test Example 3: KM12-LUC Cell Proliferation Experiment
Human colon cancer cell line KM12-LUC (LUC, stably expressing Luciferase) expressing TPM3-NTRK1 fusion gene was used to evaluate cellular activity of the compounds cellular level. The TRK fusion gene in KM12-LUC cells makes it independent on the stimulation of extracellular growth factor, sustainably self-activate and activate the downstream signal pathway associated with cell proliferation such as MAPK-ERK, PI3K-AKT, or the like. […] The method was as follows: On the first day, the cells were seeded into 384-well plates at 2,000 cells/well; on the second day, different concentrations of test compounds were added; and on the 5th day, CellTiter-Glo (Promega) was added to detect cellular potency, and 72 hours cell proliferation inhibition rate was calculated. Statistical analysis was carried out by Prism5 and the inhibition rate of the test compound were calculated, as shown in FIG. 1.

Recombinant human TRKC = target: T1, Recombinant human TRKC (Homo sapiens, UniProt Q16288); assay: In vitro activity test on TRKC kinase (HTRF KinEASE TK); type: biochemical; settings: 25.64 μM ATP, 40 min
T1 construct: purchased Carna Biosciences
Outline: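 Recombinant human TRKC (0.037 ng/μL) with 1 μM biotinylated TK substrate, 25.64 μM ATP, 5 mM MgCl2, 1 mM DTT, 40 min at room temperature; compound 1 μM to 0.05 nM, 1% DMSO. HTRF 665/620 ratio after overnight detection; IC50 from 4-parameter fit.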

Recombinant human TRKB = target: T2, Recombinant human TRKB (Homo sapiens, UniProt Q16620); assay: In vitro activity test on TRKB kinase (HTRF KinEASE TK); type: biochemical; settings: 4.77 μM ATP, 50 min
T2 construct: purchased Carna Biosciences
Outline: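 Recombinant human TRKB (0.037 ng/μL) phosphorylated 1 μM biotinylated TK substrate at 4.77 μM ATP, 5 mM MgCl2, 1% DMSO, 50 min at room temperature; compounds 1 μM–0.05 nM. HTRF KinEASE detection overnight; 665/620 ratio converted to inhibition and IC50 from 4-parameter fit.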

[1] = target: T3, recombinant human TRKA (G595R) (Homo sapiens, UniProt P04629, G595R); assay: In vitro activity test on mutant TRKA (G595R) (HTRF KinEASE TK); type: biochemical; settings: 4.5 μM ATP, 30 min
T3 construct: purchased SignalChem
Outline: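 HTRF KinEASE TK format: 0.12 ng/μL recombinant TRKA (G595R), 1 μM biotinylated TK substrate, 4.5 μM ATP, 5 mM MgCl2, 1 mM DTT, 1% DMSO, 30 min at room temperature; detection overnight. IC50 from 10-point 4-fold series (1 μM to 0.004 nM, duplicates), 665/620 ratio, 4-parameter fit.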

ΔTRKA(G595R) = target: T4, ΔTRKA(G595R) (Homo sapiens, UniProt P04629, G595R, form not given); assay: Detection of TRK kinase activity on cellular level by ELISA, ΔTRKA(G595R)/NIH-3T3 cells; type: cell-based; settings: NIH-3T3 cells stably expressing ΔTRKA(G595R), 2 hours treatment
T4 construct: NIH-3T3 cell line stably expressing ΔTRKA or ΔTRKA(G595R) was constructed by plasmid transfection
Protocol: Biological Test Example 4: Detection of TRK Kinase Activity on Cellular Level by ELISA
NIH-3T3 cell line stably expressing ΔTRKA or ΔTRKA(G595R) was constructed by plasmid transfection.
On the first day, cells were seeded into a 96-well cell culture plate, 10000 cells/well in the medium (DMEM+10% FBS). On the second day, different concentrations of test compounds were added to treat cells for 2 hours, then the cell culture plate was placed on ice; and the supernatant was removed and washed with pre-cooled PBS once. The cells were lysed with NP40 lysis buffer containing protease and phosphatase inhibitor, transferred to an antibody pre-coated plate, and sealed to incubate overnight at 4° C. The remaining steps were proceeded according to the method provided in the ELISA kit (eg, as described in R&D DYC2578-2), results were shown in Table 2.

Recombinant human TRKA = target: T5, Recombinant human TRKA (Homo sapiens, UniProt P04629); assay: In vitro activity test on TRKA kinase (HTRF KinEASE TK); type: biochemical; settings: 14.68 μM ATP, 40 min
T5 construct: purchased Carna Biosciences
Outline: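 Reaction: 0.2 ng/μL TRKA, 1 μM biotinylated TK substrate, 14.68 μM ATP, 5 mM MgCl2, 1 mM DTT, 1% DMSO, 40 min at room temperature. Compounds tested at 1 μM to 0.05 nM (10-point, 3-fold, duplicate). HTRF 665/620 ratio converted to % inhibition versus no-compound control; IC50 by 4-parameter fit.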

[2] = target: T6, recombinant human TRKA (G667C) (Homo sapiens, UniProt P04629, G667C); assay: In vitro activity test on mutant TRKA (G667C) (HTRF KinEASE TK); type: biochemical; settings: 5.5 μM ATP, 30 min
T6 construct: purchased SignalChem
Outline: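 HTRF KinEASE TK format with recombinant human TRKA G667C (0.026 ng/μL), 1 μM biotinylated TK substrate, 5.5 […] ATP, 5 mM MgCl2, 1 mM DTT, 1% DMSO; 30 min at room temperature. Detection overnight; 665/620 ratio gives % inhibition, IC50 from 4-parameter fit over 10 doses (1 μM–0.004 nM).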

T2 sequence (Q16620 32-822): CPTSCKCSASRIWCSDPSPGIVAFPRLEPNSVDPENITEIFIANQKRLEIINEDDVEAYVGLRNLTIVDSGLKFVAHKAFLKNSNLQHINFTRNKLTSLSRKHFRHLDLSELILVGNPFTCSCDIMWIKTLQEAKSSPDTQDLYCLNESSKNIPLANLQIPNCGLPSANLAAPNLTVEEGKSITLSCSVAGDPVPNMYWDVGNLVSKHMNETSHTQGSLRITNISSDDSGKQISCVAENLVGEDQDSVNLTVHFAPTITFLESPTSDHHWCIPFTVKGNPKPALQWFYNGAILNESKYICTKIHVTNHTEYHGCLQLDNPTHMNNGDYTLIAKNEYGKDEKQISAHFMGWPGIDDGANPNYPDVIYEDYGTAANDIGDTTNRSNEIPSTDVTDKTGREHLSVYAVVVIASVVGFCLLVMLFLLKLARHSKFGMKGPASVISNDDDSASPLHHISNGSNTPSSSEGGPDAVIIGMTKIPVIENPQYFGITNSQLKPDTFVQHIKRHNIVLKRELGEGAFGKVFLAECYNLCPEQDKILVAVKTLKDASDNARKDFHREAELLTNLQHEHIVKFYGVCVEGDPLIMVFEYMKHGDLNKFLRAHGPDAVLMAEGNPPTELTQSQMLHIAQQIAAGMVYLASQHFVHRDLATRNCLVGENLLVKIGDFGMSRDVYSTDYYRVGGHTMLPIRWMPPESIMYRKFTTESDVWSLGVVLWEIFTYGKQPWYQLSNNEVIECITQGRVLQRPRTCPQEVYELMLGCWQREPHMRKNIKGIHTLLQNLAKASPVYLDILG
T3 sequence (P04629 33-796 G595R): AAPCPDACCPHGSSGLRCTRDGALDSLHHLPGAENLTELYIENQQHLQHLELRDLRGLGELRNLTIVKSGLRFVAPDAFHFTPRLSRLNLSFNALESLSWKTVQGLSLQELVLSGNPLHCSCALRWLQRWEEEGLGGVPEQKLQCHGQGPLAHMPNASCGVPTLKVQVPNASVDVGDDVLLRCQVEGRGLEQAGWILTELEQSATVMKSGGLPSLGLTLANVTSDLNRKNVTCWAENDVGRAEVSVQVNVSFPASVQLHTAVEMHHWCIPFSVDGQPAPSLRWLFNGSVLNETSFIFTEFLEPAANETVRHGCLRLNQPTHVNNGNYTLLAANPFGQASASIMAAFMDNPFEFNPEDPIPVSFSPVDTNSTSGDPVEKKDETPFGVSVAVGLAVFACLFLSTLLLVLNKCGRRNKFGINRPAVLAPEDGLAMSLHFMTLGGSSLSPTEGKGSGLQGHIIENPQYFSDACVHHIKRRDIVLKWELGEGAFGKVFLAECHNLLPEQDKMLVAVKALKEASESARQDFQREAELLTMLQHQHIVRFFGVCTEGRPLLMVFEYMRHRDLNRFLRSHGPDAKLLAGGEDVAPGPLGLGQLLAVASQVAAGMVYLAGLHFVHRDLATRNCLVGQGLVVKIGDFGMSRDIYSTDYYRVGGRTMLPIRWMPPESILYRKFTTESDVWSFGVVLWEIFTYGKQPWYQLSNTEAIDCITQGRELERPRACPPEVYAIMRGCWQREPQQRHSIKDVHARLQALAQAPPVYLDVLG
T4 sequence (P04629 440-796 G595R limits assumed, form open): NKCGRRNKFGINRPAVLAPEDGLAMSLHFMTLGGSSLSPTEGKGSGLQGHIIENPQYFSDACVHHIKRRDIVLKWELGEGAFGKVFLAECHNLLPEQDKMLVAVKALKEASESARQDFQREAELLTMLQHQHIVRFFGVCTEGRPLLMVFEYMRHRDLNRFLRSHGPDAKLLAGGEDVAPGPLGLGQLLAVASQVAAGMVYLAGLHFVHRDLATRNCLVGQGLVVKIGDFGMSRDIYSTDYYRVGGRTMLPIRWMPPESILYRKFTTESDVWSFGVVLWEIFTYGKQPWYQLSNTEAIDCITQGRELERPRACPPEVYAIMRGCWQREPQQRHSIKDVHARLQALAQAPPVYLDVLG
T1 sequence (Q16288 32-839): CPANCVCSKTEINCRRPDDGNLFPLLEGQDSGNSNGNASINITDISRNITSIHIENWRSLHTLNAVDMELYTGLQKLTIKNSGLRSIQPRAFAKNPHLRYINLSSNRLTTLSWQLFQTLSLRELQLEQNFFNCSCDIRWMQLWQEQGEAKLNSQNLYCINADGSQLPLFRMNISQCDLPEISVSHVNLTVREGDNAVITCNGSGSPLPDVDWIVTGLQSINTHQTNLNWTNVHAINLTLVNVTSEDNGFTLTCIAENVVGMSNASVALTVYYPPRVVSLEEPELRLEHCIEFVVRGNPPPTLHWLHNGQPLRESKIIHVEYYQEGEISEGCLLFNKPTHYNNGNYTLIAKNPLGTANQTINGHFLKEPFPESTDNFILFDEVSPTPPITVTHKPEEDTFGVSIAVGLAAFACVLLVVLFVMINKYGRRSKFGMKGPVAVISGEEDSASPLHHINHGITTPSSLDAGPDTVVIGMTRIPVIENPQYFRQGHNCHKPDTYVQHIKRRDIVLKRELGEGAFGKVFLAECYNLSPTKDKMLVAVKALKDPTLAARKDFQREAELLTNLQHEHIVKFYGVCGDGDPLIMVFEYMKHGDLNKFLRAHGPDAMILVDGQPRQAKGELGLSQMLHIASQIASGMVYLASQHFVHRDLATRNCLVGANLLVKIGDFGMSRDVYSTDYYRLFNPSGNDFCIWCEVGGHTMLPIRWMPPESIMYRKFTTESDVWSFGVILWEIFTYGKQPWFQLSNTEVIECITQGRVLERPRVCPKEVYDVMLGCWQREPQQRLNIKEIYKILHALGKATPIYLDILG
T6 sequence (P04629 33-796 G667C): as the sequence (P04629 33-796 G595R) above, with R563G, G635C counted along it
T5 sequence (P04629 33-796): as the sequence (P04629 33-796 G595R) above, with R563G counted along it

| Compound | IC50 (KM12-LUC cells) | IC50 (Recombinant human TRKC) | IC50 (Recombinant human TRKB) | IC50 [1] | IC50 (ΔTRKA(G595R)) | IC50 (Recombinant human TRKA) | IC50 [2] |
| --- | --- | --- | --- | --- | --- | --- | --- |
| O[C@@H]1CCN(c2ccc(-c3c(Cl)cnc4ccc(N5C[C@@H](F)C[C@@H]5c5cc(F)ccc5F)nc34)cn2)C1 [Example 65, (R)-1-(5-(3-chloro-6-((2R,4S)-2-(2,5-difluorophenyl)-4-fluoropyrrolidin-1-yl)-1,5-naphthyridin-4-yl)pyridin-2-yl)pyrrolidin-3-ol] | < 10 nM | < 10 nM | < 10 nM | < 10 nM | < 10 nM | < 1 nM | < 10 nM |
| [2H]c1nc(-c2cnn(C3CCNCC3)c2)c2nc(N3C[C@@H](F)C[C@@H]3c3cc(F)ccc3F)ccc2n1 [Example 58] | < 10 nM | < 1 nM | < 10 nM | < 1 nM | < 10 nM | < 1 nM | < 1 nM |
| O=C1CNCCN1c1ccc(-c2c(F)cnc3ccc(N4C[C@@H](F)C[C@@H]4c4cc(F)ccc4F)nc23)cn1 [Example 97, 1-(5-(6-((2R,4S)-2-(2,5-difluorophenyl)-4-fluoropyrrolidin-1-yl)-3-fluoro-1,5-naphthyridin-4-yl)pyridin-2-yl)piperazin-2-one] | < 10 nM | < 1 nM | < 10 nM |  |  | < 1 nM |  |
| Fc1ccc(F)c([C@H]2CCCN2c2ccc3nccc(-c4cnn(C5CCNCC5)c4)c3n2)c1 [Example 7, (R)-2-(2-(2,5-Difluorophenyl)pyrrolidin-1-yl)-8-(1-(piperidin-4-yl)-1H-pyrazol-4-yl)-1,5-naphthyridine] | < 10 nM | < 50 nM | < 100 nM | < 1 nM | < 10 nM | < 50 nM | < 1 nM |
| Fc1ccc(F)c([C@H]2C[C@H](F)CN2c2ccc3ncc(Cl)c(-c4ccc(C5CCNCC5)nc4)c3n2)c1 [Example 63, 7-chloro-2-((2R,4S)-2-(2,5-difluorophenyl)-4-fluoropyrrolidin-1-yl)-8-(6-(piperidin-4-yl)pyridin-3-yl)-1,5-naphthyridine] | < 10 nM | < 10 nM | < 10 nM | < 10 nM | < 10 nM | < 1 nM |  |
